# Experiments:
# [1] = biological target: T1, 20S proteasome core particle, PBE1(β5) subunit (chymotrypsin-like activity) (Arabidopsis thaliana, UniProt O23717); assay: Suc-LLVY-AMC cleavage in leaf lysate and APF, […]; format: cell-based
# T1 construct: native proteasomes in leaf crude lysate and apoplastic fluid; with other subunits of the assembled 20S core particle
# T1 sequence (O23717 58-274): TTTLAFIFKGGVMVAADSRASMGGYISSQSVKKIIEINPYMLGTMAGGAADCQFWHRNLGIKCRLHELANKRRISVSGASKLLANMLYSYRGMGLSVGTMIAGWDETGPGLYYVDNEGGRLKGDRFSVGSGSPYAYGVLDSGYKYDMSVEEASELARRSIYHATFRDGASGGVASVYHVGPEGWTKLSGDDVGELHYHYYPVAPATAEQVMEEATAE
# [2] = biological target: T2, 20S proteasome core particle, PBE1(β5) subunit (chymotrypsin-like activity) (Arabidopsis thaliana, UniProt O23717); assay: Suc-LLVY-AMC fluorogenic peptidase assay with […] SylA, affinity-purified proteasomes; format: biochemical
# T2 construct: with other subunits of the assembled 20S core particle (PAG1(α7)-FLAG)
# T2 sequence (O23717 58-274): T1 sequence (O23717 58-274)
# T2 sequence (O23715 2-249 partner): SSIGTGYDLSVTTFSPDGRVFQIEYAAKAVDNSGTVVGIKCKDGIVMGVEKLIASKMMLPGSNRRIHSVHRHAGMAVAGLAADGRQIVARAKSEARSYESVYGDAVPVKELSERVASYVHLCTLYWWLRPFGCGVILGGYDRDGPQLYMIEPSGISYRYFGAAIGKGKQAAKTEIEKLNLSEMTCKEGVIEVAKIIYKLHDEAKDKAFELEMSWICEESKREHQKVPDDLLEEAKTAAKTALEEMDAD
SMILES,"Suc-LLVY-AMC cleavage in leaf lysate and APF, 50 μM [1]","Suc-LLVY-AMC fluorogenic peptidase assay with 50 or 150 μM SylA, affinity-purifi [2]"
"CC(C)C[C@H](NC(=O)[C@H](Cc1ccccc1)NC(=O)c1cnccn1)B(O)O [BTZ, 1R-3-methyl-1-2S-3-phenyl-2-pyrazin-2-carbonylamino propanoyl amino butyl boronic acid]","Suc-LLVY-AMC breakdown in the CL was strongly suppressed by the well-characterized CP inhibitors bortezomib (BTZ), MG132",
"CC(C)[C@H](NC(=O)N[C@H](C(=O)N[C@H]1/C=C/CCNC(=O)/C=C/[C@H](C(C)C)NC1=O)C(C)C)C(=O)O [SylA, syringolin-A]",,not only effectively inhibit the proteolytic activity of affinity-purified Arabidopsis proteasomes and those in the CL

# Reference: article PMC11829042, “Proteasomes accumulate in the plant apoplast where they participate in microbe-associated molecular pattern (MAMP)-triggered pathogen defense” (Nature Communications, 2025)
